Laboratory results from patent publication US20080004282A1, “Compositions and methods for modulating gated ion channels” (PainCeptor Pharma Corporation, priority 2006, published 2008).
Read-outs that look alike come from different tables or passages of the source.

Target: T1, ASIC1a (Homo sapiens, UniProt P78348)
T1 sequence (P78348 1-528): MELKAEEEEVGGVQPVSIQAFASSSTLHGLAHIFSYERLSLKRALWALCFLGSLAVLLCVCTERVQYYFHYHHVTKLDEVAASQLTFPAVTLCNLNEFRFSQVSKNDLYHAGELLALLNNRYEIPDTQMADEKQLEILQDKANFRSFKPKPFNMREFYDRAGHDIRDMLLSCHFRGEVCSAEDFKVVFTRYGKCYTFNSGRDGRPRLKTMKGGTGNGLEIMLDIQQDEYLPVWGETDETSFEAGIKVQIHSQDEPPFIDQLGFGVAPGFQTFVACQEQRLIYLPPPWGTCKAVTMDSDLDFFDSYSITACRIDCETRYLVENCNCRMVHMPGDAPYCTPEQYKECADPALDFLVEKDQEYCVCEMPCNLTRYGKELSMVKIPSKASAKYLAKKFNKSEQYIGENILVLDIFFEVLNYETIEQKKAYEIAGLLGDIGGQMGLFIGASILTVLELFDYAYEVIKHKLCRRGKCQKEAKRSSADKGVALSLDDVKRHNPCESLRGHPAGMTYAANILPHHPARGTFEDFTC
Experiment: Whole cell patch clamp in HEK293 cells transfected with hASIC1a
Assay type: cell-based
Parameters: expressed in transfected cells; host or cells: Xenopus laevis oocytes, nuclear microinjection of an expression vector such as pCDNA3
Text: Screening and Bioanalysis of ASIC Antagonists in Heterologous Expression Systems
This example describes another in vitro assessment of the activity of the compounds of the present invention.
Another example of an in vitro assessment method consists of using mammalian heterologous expression systems, which are known to the skilled in the art, and include a variety of mammalian cell lines such as COS, HEK, e.g., HEK293 and/or CHO, cells. Cell lines are transfected with gated ion channel(s) and used to perform electrophysiology as follows:
All experiments are performed at room temperature (20-25° C.) in voltage clamp using conventional whole cell patch clamp methods (Neher, E., et al. (1978) Pfluegers Arch 375:219-228). […]
Coverslips with the cells are transferred to a 15 μl experimental chamber mounted on the stage of an inverted microscope (IMT-2, Olympus) supplied with Nomarski optics. […] The cells are held at a holding voltage of −60 mV and at the start of each experiment the current is continuously measured for 45 s to ensure a stable baseline. […] Current amplitudes are measured at the peak of the responses, and effect of the compounds is calculated as the amplitude at compound equilibrium divided by the amplitude of the current evoked by the pulse just before the compound is included. […]

CCN1CCc2c(-c3ccccc3)cc(C#N)c(N)c2C1 [Compound 12, 8-Amino-2-ethyl-5-phenyl-1,2,3,4-tetrahydro-isoquinoline-7-carbonitrile]
IC50 (HEK293 cells, whole cell patch clamp, six point dose-response, read-out: IC50, inhibition of acid-induced hASIC1a activity): 4 µM

CCN1CCc2c(-c3cc(Cl)ccc3OC)cc(C#N)c(N)c2C1 [Compound 44]
IC50: 5.1 µM
